Results reported in patent US10174067B2, “Type of cytidine derivative and application thereof” (priority 2014, dated 2019).
Marks after values point to notes of the source that are not given here.

Assays:
[1] = tested on: ICR mice; experiment: in vivo; conditions: female ICR mice; single-dose ip
Description: This experiment was to investigate the toxic effects of single-dose intraperitoneal administration on ICR mice and determine the maximum tolerated dose (MTD) of each subject. Maximum tolerated dose (MTD) refers to the dose that may not cause an animal to die, may not cause the animal to suffer weight loss exceeding 10% (compared with Day 0), or may not produce significant side effects.
(§1) The corresponding amount of test substance was taken in a 5 mL glass tube and dissolved in ethanol with a 5 mm magnetic stirrer for stirring. After dissolving completely, Cremophor EL was added with continuous stirring. The marked amount of saline was added and mixed evenly before use. The volume ratio of ethanol, Cremophor EL, and physiological saline was 5:5:90.
Varieties and lines: ICR mice; level: SPF; sex: female.
Method of administration: ip. The dose was reduced in case of animal death, till an animal survived; the dose was increased in case of no animal death; the test was ended when the animals survived normally at the given high dose. Finally, the MTD of the mice on the test substances was determined according to the test results. The animals were observed continuously for 7 days after acute administration.
During the experiment, all animals were under detailed and continuous clinical observation for […], twice a day (10:00 am, 16:00 pm) after administration. The observation included but not limited to: skin, hair, ear, nose, mouth, chest, abdomen, external genitalia, limbs and feet, respiratory and circulatory system, autonomic effects (such as salivation), nervous system (such as tremor, convulsions, stress response and abnormal behavior).
The body of animals was weighed before administration, and then weighed and recorded at the same time each day.
The observation results, animal body weight, and animal survival after one week of administration were recorded in detail every day.

[2] = Description: To determine the growth inhibition effect and toxicity of the cytidine derivative samples of the present invention on the transplanted tumor of nude mice bearing colon cancer HCT-116.
as §1
Varieties and lines; Balb/c Nude mice; level: SPF; sex: female.
4.2 Animal inoculation and grouping: Each nude mouse was inoculated subcutaneously with 0.1 mL of cell suspension (3×10^6 cell/mouse) at right side of hind limb in a sterile stale. When the tumor grew to about 60-150 mm^3, the nude mice with similar tumor volume and desirable shape were selected (it would be better to select single spherical shape, no irregular shape or multiple tumors grouped together) for grouping, 6 mice a group. The grouping is as follows:
The control group, namely the model control group, was injected with a mixture of ethanol, Cremophor EL, and saline (5:5:90).
Those mice were weighed three times a week.
All clinical symptoms of each animal should be recorded at the beginning of the test and during the test. The observations should be made at the same time each day.
An animal would be killed by CO2 when its weight loss was more than 20%, when it was about to die, or when its tumor volume exceeded 2800 mm^3. The tumor was separated and weighed, and the animal was autopsied and observed to evaluate and record whether there were pathological changes in the organs.
The data were expressed as Mean±SEM unless specially provided; Non-pairing T test was performed for the data between the two groups. P<0.05 was considered as significant difference.

[3] = tested on: HCT-116 colon cancer xenografts; experiment: Tumor growth inhibition of HCT-116 colon cancer xenografts in tumor-bearing nude mice (tumor volume, TGI %, RTV, T/C %); format: in vivo, Balb/c Nude mice
Description: 4.1 Tumor cells: colon cancer HCT-116 cells, purchased from the Institute of Cell Biology, Chinese Academy of Sciences. The cells were incubated by F-12 medium (containing 10% FBS) in carbon dioxide incubator at 37° C. and in saturated humidity, with 5% CO2 and 95% air in volume fraction. Before inoculation, the cells at logarithmic phase were taken, and digested with 0.25% trypsin, washed once with PBS and resuspended in PBS for counting. The cells were resuspended in serum-free medium and adjusted to about 3×10^7 cell/mL.
The grouping is as follows:
The formations of tumor at the inoculation site of each group of nude mice were observed. The diameter of tumor nodule (D) was measured three times a week with round hole ruler, and the volume of tumor nodule (V) was calculated according to the following formula: […].
Anti-tumor activity was evaluated by tumor growth inhibition rate TGI (%) and relative tumor proliferation rate T/C (%).
The relative tumor volume (RTV) was calculated as: RTV=Vt/V0, where V0 was the tumor volume when they were grouped and administered, and Vt was the tumor volume at the time of measurement.
The relative proliferation rate T/C (%) was calculated as: […].
TRTV: RTV of the treatment group; CRTV: RTV of the control group.
P<0.05 was considered as significant difference.

[4] = Day 0, G3-G9 groups, single IP dose, Mean±SEM
[5] = Day 4, G3-G9 groups, single IP dose, Mean±SEM
[6] = Day 6, G3-G9 groups, single IP dose, Mean±SEM
[7] = Day 8, G3-G9 groups, single IP dose, Mean±SEM
[8] = Day 11, G3-G9 groups, single IP dose, Mean±SEM
[9] = Day 13, G3-G9 groups, single IP dose, Mean±SEM
[10] = Day 15, G3-G9 groups, single IP dose, Mean±SEM
[11] = Day 18, G3-G9 groups, single IP dose, Mean±SEM
[12] = Day 20, G3-G9 groups, single IP dose, Mean±SEM
[13] = Day 22, G3-G9 groups, single IP dose, Mean±SEM

O=C(Nc1ccn([C@@H]2O[C@H](CO)[C@@H](O)C2(F)F)c(=O)n1)OCc1ccccc1 [Compound G4, 4-N-(carboxybenzyl)-2′-deoxy-2′,2′-difluorocytidine]
dose that could be tolerated (maximum tolerated dose, MTD) [1]: 350 mg/kg
Weight change rate, Day 0 [2, 4]: 0.00 ± 0.00%
Weight of mice, Day 0 [2, 4]: 20.20 ± 0.55 g
weights of animals on Day 4 after administration ([2]; Day 4 (G7: Day 4 and Day 6), p<0.05): significantly reduced
Weight change rate, Day 4 [2, 5]: −10.91 ± 3.45 %
Weight of mice, Day 4 [2, 5]: 18.22 ± 1.19 g
weight loss rate on Day 4 after administration ([2]; Day 4, G4 350 mg/kg, G5 325 mg/kg, G7 250 mg/kg, single IP): 10.91±3.45%
animals died on Day 4 after administration ([2]; Day 4, G4 350 mg/kg, G8 350 mg/kg, G6 300 mg/kg, single IP, 6 mice a group): 1
Weight change rate, Day 6 [2, 6]: −1.87 ± 2.96%
Weight of mice, Day 6 [2, 6]: 20.06 ± 1.18 g
Weight change rate, Day 8 [2, 7]: 0.30 ± 1.84%
Weight of mice, Day 8 [2, 7]: 20.48 ± 0.97 g
Weight change rate, Day 11 [2, 8]: 3.85 ± 5.08%
Weight of mice, Day 11 [2, 8]: 21.08 ± 0.76 g
Weight change rate, Day 13 [2, 9]: 7.64 ± 4.55%
Weight of mice, Day 13 [2, 9]: 21.86 ± 0.67 g
Weight change rate, Day 15 [2, 10]: 8.84 ± 4.33%
Weight of mice, Day 15 [2, 10]: 22.10 ± 0.57 g
Weight change rate, Day 18 [2, 11]: 9.28 ± 3.53 %
Weight of mice, Day 18 [2, 11]: 22.20 ± 0.43 g
Weight change rate, Day 20 [2, 12]: 10.50 ± 4.03 %
Weight of mice, Day 20 [2, 12]: 22.44 ± 0.49 g
Weight change rate, Day 22 [2, 13]: 11.39 ± 4.05%
Weight of mice, Day 22 [2, 13]: 22.62 ± 0.49 g
Day 22 Mortality ([2]; Day 22, single IP dose (mg/kg)): 17%
body weight compared with model control group ([2]; G4 Day 18 to Day 20 (p<0.05), G5 Day 13 to Day 20 (p<0.05~0.01)): significantly increased
clinical symptoms ([2]; after single IP dose, compared with model control group): 3 animals had less activity, loss of body weight, and body surface temperature lower than normal
Day 0 (RTV) [3, 4]: 1.00 ± 0.00
Tumor volume, Day 0 [3, 4]: 63.44 ± 18.74** mm^3
Day 4 (TGI %) ([3]; Day 4, G3-G9 groups, single IP dose): 83.29%
Day 4 (RTV) [3, 5]: 0.70 ± 0.13
Tumor volume, Day 4 [3, 5]: 44.53 ± 13.75** mm^3
Day 6 (TGI %) ([3]; Day 6, G3-G9 groups, single IP dose): 89.82%
Day 6 (RTV) [3, 6]: 0.68 ± 0.10
Tumor volume, Day 6 [3, 6]: 43.04 ± 10.69** mm^3
Day 8 (TGI %) ([3]; Day 8, G3-G9 groups, single IP dose): 91.66%
Day 8 (RTV) [3, 7]: 0.69 ± 0.13
Tumor volume, Day 8 [3, 7]: 43.83 ± 12.73** mm^3
tumor inhibition effect ([3]; Day 8 to Day 13 after single-dose intraperitoneal administration): good tumor inhibition effect
Day 11 (TGI %) ([3]; Day 11, G3-G9 groups, single IP dose): 92.58%
Day 11 (RTV) [3, 8]: 1.12 ± 0.29
Tumor volume, Day 11 [3, 8]: 59.68 ± 11.72** mm^3
Day 13 (TGI %) ([3]; Day 13, G3-G9 groups, single IP dose): 92.57%
Day 13 (RTV) [3, 9]: 1.51 ± 0.39
Tumor volume, Day 13 [3, 9]: 86.22 ± 24.86** mm^3
Day 15 (TGI %) ([3]; Day 15, G3-G9 groups, single IP dose): 90.04%
Day 15 (RTV) [3, 10]: 2.80 ± 0.97
Tumor volume, Day 15 [3, 10]: 140.70 ± 34.22** mm^3
Day 18 (TGI %) ([3]; Day 18, G3-G9 groups, single IP dose): 85.93%
Day 18 (RTV) [3, 11]: 5.36 ± 1.82
Tumor volume, Day 18 [3, 11]: 260.52 ± 51.15** mm^3
Day 20 (TGI %) ([3]; Day 20, G3-G9 groups, single IP dose): 78.95%
Day 20 (RTV) [3, 12]: 9.65 ± 3.23
Tumor volume, Day 20 [3, 12]: 446.16 ± 65.85** mm^3
Day 22 (TGI %) ([3]; Day 22, G3-G9 groups, single IP dose): 75.68%
Day 22 (RTV) [3, 13]: 14.66 ± 5.30
Tumor volume, Day 22 [3, 13]: 636.07 ± 78.89** mm^3
T/C % on Day 22 ([3]; Day 22, G4 350 mg/kg, G5 325 mg/kg, G7 250 mg/kg, single IP): 75.38%
relative tumor volume compared with the model control group ([3]; G4 and G5 Day 4 to Day 18, G7 Day 4 to Day 15 (p<0.05-0.01), G9 only Day 4 (p<0.05)): reduced significantly
maximum value of TGI % ([3]; day of maximum: G3 Day 8, G4 Day 11, G5 Day 11, G9 Day 4, G7 Day 8, single IP): 92.58%
minimum value of T/C % ([3]; day of minimum: G4 Day 13, G5 Day 11, G7 Day 8, single IP): 17.62%
